Measurements taken from paper PMC9697873, “Construction and Evaluation of a Novel Organic Anion Transporter 1/3 CRISPR/Cas9 Double-Knockout Rat Model” (Pharmaceutics, 2022).
Where a name gives a salt, the structure may show the parent alone. Read-outs that look alike come from different tables or passages of the source.

What was measured:
[1] = UTs concentration and renal uptake ratio detection in WT and KO rats; type: in vivo, rat; settings: for plasma concentration of endogenous UT, KO compared with WT rats / renal uptake ratio of endogenous UT, KO compared with WT rats: 4W and/or 7W rats, n = 7; for urine concentration of endogenous UT, KO compared with WT rats: 12-h urine, 4W and 7W rats
Method: We collected blood, 12-h urine and kidney tissue samples of 4W and 7W WT and KO rats. The concentrations of UTs were measured by the liquid chromatography-tandem mass spectrometry (LC-MS/MS), which consisted of an Agilent 1260 liquid chromatography and a 6460 triple-quadrupole mass spectrometer operated in the electrospray ionization mode (Agilent Technologies, Santa Clara, CA, USA). Chromatographic separations were performed on an Agilent ZORBAX RR StableBond C18 analytical guard column (4.6 mm × 100 mm, 3.5 µm, Agilent Technologies, Santa Clara, CA, USA) at 30 °C. The MS parameters are shown in Supporting Information Table S1. […] The internal standard used in the positive ion mode was d3-creatinine, and in the negative ion mode was d5-hippuric acid.

[2] = Urinary excretion after intravenous drug cocktail in WT and KO rats; type: in vivo, rat; settings: KO vs WT rats, i.v. cocktail, urine to 12 h
Method: The blood samples were centrifuged at 8000× g for 10 min and the supernatant was stored at −80 °C for detection.

[3] = furosemide ref 19; PAH ref 17, 52; cited from earlier work
[4] = Slc22a6/Slc22a8-/- rats, i.v. cocktail, mean ± S.D., n = 5
[5] = WT rats, i.v. cocktail, mean ± S.D., n = 5

| Molecule | plasma concentration of endogenous UT, KO compared with WT rats [1] | renal uptake ratio of endogenous UT, KO compared with WT rats [1] | other results |
| --- | --- | --- | --- |
| Cc1ccc(OS(=O)(=O)O)cc1 [p-cresol sulfate] | significantly increased | obviously decreased | – |
| Cn1cnc2c(ncn2[C@@H]2O[C@H](CO)[C@@H](O)[C@H]2O)c1=O [1-methyl-inosine] | significantly increased | obviously decreased | urine concentration of endogenous UT, KO compared with WT rats [1]: clearly decreased |
| O=C(O)[C@H]1O[C@@H](Oc2ccccc2)[C@H](O)[C@@H](O)[C@@H]1O [phenyl-β-D-glucuronide] | significantly lower | much higher | – |
| CN(C)c1nc2c(ncn2[C@@H]2O[C@H](CO)[C@@H](O)[C@H]2O)c(=O)[nH]1 [N2,N2-dimethylguanosine] | – | – | urine concentration of endogenous UT, KO compared with WT rats [1]: clearly decreased |
| inulin | – | – | plasma concentration, KO compared with WT rats (KO vs WT rats, i.v. cocktail): much higher; AUC(0–12) (Slc22a6/Slc22a8-/- rats, i.v. cocktail (PAH 5 mg/kg, metformin 5 mg/kg, inulin 100 mg/kg), mean ± S.D., n = 5): 14,208.11 ± 1433.67 ng/mL·min; AUC(0–∞) [4]: 16,434.89 ± 1696.15 ng/mL·min; CL/F [4]: 6137.27 ± 639.31; Cmax [4]: 376.40 ± 36.13 ng/mL; MRT(0–12) [4]: 35.34 ± 4.08 min; MRT(0–∞) [4]: 37.99 ± 4.20 min; V1/F [4]: 185,957.58 ± 15,232.62 L/kg; t1/2α [4]: 5.23 ± 2.51 min; CL/F [5]: 7427.26 ± 724.03; Cmax [5]: 324.47 ± 33.41 ng/mL; MRT(0–12) [5]: 28.71 ± 5.54 min; MRT(0–∞) [5]: 34.03 ± 8.70 min; V1/F [5]: 241,341.96 ± 36672.44 L/kg; t1/2α [5]: 14.75 ± 4.72 min; urinary excretion / urine concentration, KO compared with WT rats [2]: significantly decreased |
| CCc1ccc(OS(=O)(=O)[O-])cc1.[K+] [4-ethylphenyl sulfate] | significantly increased | obviously decreased | urine concentration of endogenous UT, KO compared with WT rats [1]: increased |
| CC(=O)N[C@@H](CCCN=C(N)N)C(=O)O [N-acetyl-L-arginine] | significantly increased | obviously decreased | – |
| N[C@@H](CCCCNCC(=O)O)C(=O)O [N6-(carboxymethyl)-l-lysine] | significantly increased | obviously decreased | – |
| O=C(O)c1cc(=O)[nH]c(=O)[nH]1 [orotic acid] | significantly increased | obviously decreased | – |
| Cc1ccc(O[C@@H]2O[C@H](C(=O)O)[C@@H](O)[C@H](O)[C@H]2O)cc1 [p-cresol glucuronide] | significantly lower | much higher | – |
| O=C(O)CNC(=O)c1ccccc1 [hippuric acid] | significantly increased | obviously decreased | – |
| O=S(=O)([O-])Oc1c[nH]c2ccccc12.[K+] [3-indoxyl sulfate potassium salt] | significantly increased | obviously decreased | – |
| O=C(O)CNC(=O)C=Cc1ccccc1 [N-(cinnamoyl)glycine] | significantly lower | much higher | – |
| CC(=O)Nc1ccn([C@@H]2O[C@H](CO)[C@@H](O)[C@H]2O)c(=O)n1 [N-acetylcytidine] | significantly increased | obviously decreased | – |
| O=c1[nH]c(=O)c2[nH]c(=O)[nH]c2[nH]1 [uric acid] | significantly increased | obviously decreased | – |
| CN1CC(=O)NC1=N [creatinine] | not significantly increased | – | – |
| Nc1ccccc1C(=O)C[C@@H](N)C(=O)O [D-kynurenine] | significantly increased | obviously decreased | – |
| Nc1ccc(C(=O)NCC(=O)O)cc1 [PAH, p-aminohippuric acid] | – | – | plasma protein binding rate [3]: low |
| OC[C@H]1O[C@@H](Oc2c[nH]c3ccccc23)[C@H](O)[C@@H](O)[C@@H]1O [3-indolyl-β-D-glucopyranoside] | significantly increased | obviously decreased | – |
